Measurements as given in article PMC5711809, “Bayesian Analysis of MicroScale Thermophoresis Data to Quantify Affinity of Protein:Protein Interactions with Human Survivin” (Scientific Reports, 2017).
Where “and” joins values, the source holds several entries; their conditions need not be identical. Equal entries are not always repeated. Where two headings read alike, the source gives them in different places. Each block holds one molecule with its values, some of them ahead of it. Peptide text beside a SMILES is read from it.

Legend:
[1] = solubility in typical aqueous buffers; format: physicochemical
[2] = molecular target: T1, human survivin (Homo sapiens, UniProt O15392); assay: MicroScale Thermophoresis (MST) with chemically labelled survivin; format: binding; conditions: Buffer B (50 mM Tris pH 7.4, 150 mM NaCl, 10 mM MgCl2, 0.05% Tween-20, 1 mM DTT), 24 °C, three independent dilution series, read-out: KD, Robust (Bayesian)
T1 construct: His8 (pHIS8 vector); made in house; host or cells: E. coli BL21(DE3) star
Experimental: Survivin was expressed in E.coli BL21(DE3) star (Merck) cells using the pHIS8 expression vector used by Verdecia et al.[18] The expression was induced at OD600 0.6–0.8 in Luria Bertani (LB) media by 0.5 mM IPTG and incubated during 3–4 h at 30 °C. The cells were harvested at 6000 g during 20 min and resuspended in lysis buffer containing 50 mM Tris pH 8, 500 mM NaCl, 10 mM imidazole, 0.25 mM Pefabloc®SC (Sigma), […] DNAse (Sigma) and 0.2 mg/ml Lysozyme (Sigma). The cells were lysed with a high pressure homogenizer, using 3 cycles of […]. Survivin was purified by Ni^2+ chelation chromatography using 5 ml HisTrap FF column (GE Healthcare). Overnight dialysis in 50 mM Tris pH8, 150 mM NaCl and 1 mM DTT buffer and a gel filtration purification using a Superdex 75 100/300GL column (GE Healthcare) were done before chemical labelling. […] The borealin^6–20, hSgol1^291–312 and hSgol2^1066–1085 peptides were chemically synthetized (Genscript).
MicroScale Thermophoresis experiments were performed according to the NanoTemper technologies protocol in a Monolith NT.115 (green/blue) instrument (NanoTemper Technologies). […]
Survivin was labelled with the MO-L005 Monolith™ Protein Labeling Kit GREEN-MALEIMIDE (Cysteine Reactive) from NanoTemper Technologies. Peptides derived from hSgol1^291–312 ([…]) and hSgol2^1066–1085 ([…]) were analyzed in Buffer B (50 mM Tris pH 7.4, 150 mM NaCl, 10 mM MgCl2, 0.05% Tween-20 and 1 mM DTT). All samples were measured after an incubation of 5 min (according to “User Starting Guide Monolith® NT.115”).
The experiments were performed using 20% and 40% MST power and between 20–80% LED power at 24 °C. The MST traces were recorded using the standard parameters: 5 s MST power off, 30 s MST power on and 5 s MST power off. The reported measurement values are the combination of two effects: the fast, local environment dependent responses of the fluorophore to the temperature jump and the slower diffusive thermophoresis fluorescence changes. […]

[3] = molecular target: T2, human survivin (human, UniProt O15392 1-142, GREEN-MALEIMIDE (cysteine reactive) fluorescent label, in the MST experiments only); assay: MST; labelled survivin held constant, serial dilution of the peptide; Buffer B (50 mM Tris pH 7.4, 150 mM NaCl, 10 mM MgCl2, 0.05% Tween-20, 1 mM DTT); 5 min incubation; 24 °C; T-jump + thermophoresis; three dilution series; conditions: both partners purified
T2 construct: survivin, human, 16 kDa; The His tag is detected on the array by a 6X His Tag antibody; for the MST no cleavage of the tag is told; On the array the protein was unlabelled, in the MST labelled on cysteine; source: E. coli BL21(DE3) star, purified (Ni2+ chelation chromatography, gel filtration)

[4] = molecular target: T2, human survivin; assay: MST; labelled survivin held constant, serial dilution of the peptide; Buffer A (50 mM Tris pH 8.0, 150 mM NaCl, 1 mM DTT, 0.05% Tween); 5 min incubation; 24 °C; T-jump + thermophoresis; three dilution series; conditions: both partners purified
[5] = molecular target: T2, human survivin; assay: MST; labelled survivin held constant, serial dilution of the peptide; Buffer B (50 mM Tris pH 7.4, 150 mM NaCl, 10 mM MgCl2, 0.05% Tween-20, 1 mM DTT); 5 min incubation; 24 °C; T-jump + thermophoresis; three dilution series; conditions: both partners purified; remark: listed apart in the source
[6] = 5 min incubation, median and HDI 95% interval of sampled posterior

T1 sequence (O15392 whole entry): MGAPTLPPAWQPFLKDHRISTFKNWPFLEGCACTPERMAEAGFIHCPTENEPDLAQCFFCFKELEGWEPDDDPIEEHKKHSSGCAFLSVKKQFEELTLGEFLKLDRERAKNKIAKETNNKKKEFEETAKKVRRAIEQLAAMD
T2 sequence (O15392 whole entry): as above

solubility (in words) [1]: soluble
Molecule: CC(C)C[C@H](NC(=O)[C@H](CO)NC(=O)[C@H](CC(N)=O)NC(=O)[C@@H](NC(=O)[C@H](CCCCN)NC(=O)[C@H](C)NC(=O)[C@@H](NC(=O)[C@H](CCCNC(=N)N)NC(=O)[C@H](CO)NC(=O)[C@H](CO)NC(=O)CN)C(C)C)[C@@H](C)O)C(=O)N[C@@H](CCCNC(=N)N)C(=O)N[C@@H](CCCNC(=N)N)C(=O)N[C@@H](CCCNC(=N)N)C(=O)N[C@@H](CCCCN)C(=O)O [Borealin^6–20, GSSRVAKTNSLRRRK] (H-GSSRVAKTNSLRRRK-OH)

Molecule: CSCC[C@H](NC(=O)[C@H](CCCCN)NC(=O)[C@H](CC(N)=O)NC(=O)[C@@H](NC(=O)[C@H](CCCCN)NC(=O)[C@H](CCCCN)NC(=O)[C@@H](NC(=O)[C@H](CCC(N)=O)NC(=O)[C@H](CS)NC(=O)[C@@H](N)CCC(=O)O)C(C)C)C(C)C)C(=O)N[C@H](C(=O)N[C@@H](CO)C(=O)N[C@@H](CCCCN)C(=O)N[C@@H](CO)C(=O)N[C@@H](CCCCN)C(=O)N[C@@H](CCCCN)C(=O)N[C@@H](CCCNC(=N)N)C(=O)N[C@@H](CCCCN)C(=O)N[C@H](C(=O)N[C@@H](CO)C(=O)O)[C@@H](C)O)[C@@H](C)O [hSgol2^1066–1085] (H-ECQVKKVNKMTSKSKKRKTS-OH)
Kd [2, 6]: 1.6 µM

Molecule: CSCC[C@H](NC(=O)[C@H](CCCNC(=N)N)NC(=O)[C@H](CCCCN)NC(=O)[C@H](CO)NC(=O)[C@H](CCCCN)NC(=O)[C@H](CCCNC(=N)N)NC(=O)[C@H](CCCNC(=N)N)NC(=O)[C@H](CC(N)=O)NC(=O)[C@H](C)NC(=O)[C@H](CCCCN)NC(=O)[C@H](CCCNC(=N)N)NC(=O)[C@H](CCCCN)NC(=O)[C@H](CCC(=O)O)NC(=O)[C@H](CCC(=O)O)NC(=O)[C@H](CCCNC(=N)N)NC(=O)[C@@H](N)CCCCN)C(=O)N[C@@H](CO)C(=O)N[C@@H](CCCCN)C(=O)N[C@@H](Cc1ccc(O)cc1)C(=O)N[C@@H](CCCCN)C(=O)N[C@@H](CCC(=O)O)C(=O)N[C@@H](CC(N)=O)C(=O)O [hSgol1^291–312] (H-KREEKRKANRRKSKRMSKYKEN-OH)
Kd [2, 6]: 80.7 µM | Kd ([2]; 120 min incubation, median and HDI 95% interval, incubation time affected adversely the sample quality): 53.6 µM

B1: hSgol2^1066–1085 peptide (peptide)
peptide: ECQVKKVNKMTSKSKKRKTS
notes: human Shugoshin-like 2 (hSgol2), residues 1066-1085; also called hSgol2 peptide; source: synthetic peptide (Genscript)
Kd [3]: 1.6 µM and 1.4 µM

B2: borealin^6–20 peptide (peptide)
peptide: GSSRVAKTNSLRRRK
notes: borealin, human, residues 6-20; source: synthetic peptide (Genscript) for MST; laser-printed on the PEPperCHIP peptide microarray (PEPperPRINT)
Kd [4]: 10.8 µM and 10.2 µM and 10 µM

B3: hSgol1^291–312 peptide (peptide)
peptide: KREEKRKANRRKSKRMSKYKEN
notes: human Shugoshin-like 1 (hSgol1), residues 291-312, with the KEN motif; also called hSgol1 peptide; source: synthetic peptide (Genscript)
Kd [5]: 80.9 µM
